This passage reports IC50 results from US9598423B2 (BRISTOL-MYERS SQUIBB COMPANY, priority 2013, dated 2017).

For orientation: IC50 means the concentration at which inhibition is half-maximal.

The target of one experiment is CK1δ (Homo sapiens (Human), UniProt P48730). As to the kind of experiment: CK1δ kinase assay (Caliper LABCHIP electrophoretic separation of fluoresceinated peptide substrate and product). Format: biochemical. The note with it: 200 pM CK1δ, 50 μM ATP, 1.5 μM peptide substrate, 22 hours at room temperature; read-out: CK1δ (IC50). An outline of the steps:
(§1)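 Reactions ran 22 hours at room temperature and were stopped with EDTA. Phosphorylated product and unphosphorylated substrate were then separated electrophoretically. Compounds were tested at eleven concentrations, and IC50 values came from non-linear regression.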

A further experiment has as its target CK1ε (Homo sapiens (Human), UniProt P49674). Kind of experiment: CK1ε kinase assay (Caliper LABCHIP electrophoretic separation of fluoresceinated peptide substrate and product). Format: biochemical. Particulars: 200 pM CK1ε, 50 μM ATP, 1.5 μM peptide substrate, 22 hours at room temperature; read-out: CK1ε (IC50). An outline of the steps:
as §1

CK1δ, sequence (P48730 whole entry): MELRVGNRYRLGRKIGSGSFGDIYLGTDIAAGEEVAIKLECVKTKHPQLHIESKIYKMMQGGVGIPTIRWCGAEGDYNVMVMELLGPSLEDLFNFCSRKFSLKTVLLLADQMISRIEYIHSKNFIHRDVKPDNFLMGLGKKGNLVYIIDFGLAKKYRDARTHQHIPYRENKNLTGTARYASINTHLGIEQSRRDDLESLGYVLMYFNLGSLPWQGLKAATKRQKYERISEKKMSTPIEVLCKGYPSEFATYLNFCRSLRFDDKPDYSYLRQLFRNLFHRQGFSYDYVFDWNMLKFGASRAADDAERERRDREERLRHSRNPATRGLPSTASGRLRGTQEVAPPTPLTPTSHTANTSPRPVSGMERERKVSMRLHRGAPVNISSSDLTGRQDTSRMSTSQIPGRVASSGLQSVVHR
CK1ε, sequence (P49674 whole entry): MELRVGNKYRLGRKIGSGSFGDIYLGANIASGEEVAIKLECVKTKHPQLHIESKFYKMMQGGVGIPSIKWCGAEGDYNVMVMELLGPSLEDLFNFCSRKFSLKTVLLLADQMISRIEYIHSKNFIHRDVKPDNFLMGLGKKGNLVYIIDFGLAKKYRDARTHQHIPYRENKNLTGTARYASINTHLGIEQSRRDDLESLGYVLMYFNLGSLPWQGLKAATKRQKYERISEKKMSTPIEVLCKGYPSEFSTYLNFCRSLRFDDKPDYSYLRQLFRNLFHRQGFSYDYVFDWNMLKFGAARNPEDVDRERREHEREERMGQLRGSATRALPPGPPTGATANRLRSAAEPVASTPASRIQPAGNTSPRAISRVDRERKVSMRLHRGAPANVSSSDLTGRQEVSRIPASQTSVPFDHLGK

For `N#Cc1ccc(NC(=O)N2Cc3c(C(N)=O)c(-c4ccc(F)c(Cl)c4)nn3[C@H](C(F)F)C2)cc1F` [Compound A22, (S)-2-(3-Chloro-4-fluorophenyl)-N^5-(4-cyano-3-fluorophenyl)-7-(difluoromethyl)-6,7-dihydropyrazolo[1,5-a]pyrazine-3,5(4H)-dicarboxamide], the IC50 at CK1δ and on CK1ε was 0.01 to 10 nM each time.
Turning to `N#Cc1ccc(NC(=O)N2Cc3c(C(N)=O)c(-c4ccc(F)c(Cl)c4)nn3C3(C2)CC(F)(F)C3)cc1` [Compound A36, 2′-(3-Chloro-4-fluorophenyl)-N^5′-(4-cyanophenyl)-3,3-difluoro-4′H-spiro[cyclobutane-1,7′-pyrazolo[1,5-a]pyrazine]-3′,5′(6′H)-dicarboxamide], the half-maximal inhibitory concentration (IC50) on CK1δ and at CK1ε was 0.01 to 10 nM each time.
Regarding `Cc1cc(NC(=O)N2CCn3nc(-c4cccc(Cl)c4)c(C(N)=O)c3C2)ccc1C#N` [Compound A38, 2-(3-Chlorophenyl)-N^5-(4-cyano-3-methylphenyl)-6,7-dihydropyrazolo[1,5-a]pyrazine-3,5(4H)-dicarboxamide], the IC50 at CK1δ and at CK1ε was 0.01 to 10 nM in each case.
Take `N#Cc1ccc(NC(=O)N2CCn3nc(-c4cccc(Cl)c4)c(C(N)=O)c3C2)cc1OC(F)(F)F` [Compound A39, 2-(3-Chlorophenyl)-N^5-(4-cyano-3-(trifluoromethoxy)phenyl)-6,7-dihydropyrazolo[1,5-a]pyrazine-3,5(4H)-dicarboxamide]: the IC50 at CK1δ and at CK1ε was 0.01 to 10 nM each time.
As for `COc1cc(NC(=O)N2CCn3nc(-c4cccc(Cl)c4)c(C(N)=O)c3C2)ccc1C#N` [Compound A40, 2-(3-Chlorophenyl)-N^5-(4-cyano-3-methoxyphenyl)-6,7-dihydropyrazolo[1,5-a]pyrazine-3,5(4H)-dicarboxamide], the IC50 on CK1δ and at CK1ε was 0.01 to 10 nM in each case.
Take `CC(C)(C)c1cc(NC(=O)N2CCn3nc(-c4cccc(Cl)c4)c(C(N)=O)c3C2)ccc1C#N` [Compound A42, N^5-(3-(tert-Butyl)-4-cyanophenyl)-2-(3-chlorophenyl)-6,7-dihydropyrazolo[1,5-a]pyrazine-3,5(4H)-dicarboxamide]: the IC50 at CK1δ and at CK1ε was 0.01 to 10 nM throughout.
With `Cc1nc(-c2ccc(NC(=O)N3CCn4nc(-c5cccc(Cl)c5)c(C(N)=O)c4C3)cc2)cs1` [Compound A46, 2-(3-Chlorophenyl)-N^5-(4-(2-methylthiazol-4-yl)phenyl)-6,7-dihydropyrazolo[1,5-a]pyrazine-3,5(4H)-dicarboxamide], the IC50 on CK1δ and on CK1ε was 0.01 to 10 nM in each case.
Take `Cc1ncc(-c2ccc(NC(=O)N3CCn4nc(-c5cccc(Cl)c5)c(C(N)=O)c4C3)cc2)o1` [Compound A47, 2-(3-Chlorophenyl)-N^5-(4-(2-methyloxazol-5-yl)phenyl)-6,7-dihydropyrazolo[1,5-a]pyrazine-3,5(4H)-dicarboxamide]: the IC50 at CK1δ and at CK1ε was 0.01 to 10 nM in each case.
As to `Cc1cc(NC(=O)N2CCn3nc(-c4ccc(F)c(Cl)c4)c(C(N)=O)c3C2)ccc1C#N` [Compound A48, 2-(3-Chloro-4-fluorophenyl)-N^5-(4-cyano-3-methylphenyl)-6,7-dihydropyrazolo[1,5-a]pyrazine-3,5(4H)-dicarboxamide], the IC50 on CK1δ and on CK1ε was 0.01 to 10 nM each time.
On to `N#Cc1ccc(NC(=O)N2CCn3nc(-c4ccc(F)c(Cl)c4)c(C(N)=O)c3C2)cc1N1CCOCC1` [Compound A49, 2-(3-Chloro-4-fluorophenyl)-N^5-(4-cyano-3-morpholinophenyl)-6,7-dihydropyrazolo[1,5-a]pyrazine-3,5(4H)-dicarboxamide], for which the IC50 on CK1δ and on CK1ε was 0.01 to 10 nM in each case.
In the case of `N#Cc1ccc(NC(=O)N2CCn3nc(-c4ccc(F)c(Cl)c4)c(C(N)=O)c3C2)cc1C1CC1` [Compound A50, 2-(3-Chloro-4-fluorophenyl)-N^5-(4-cyano-3-cyclopropylphenyl)-6,7-dihydropyrazolo[1,5-a]pyrazine-3,5(4H)-dicarboxamide], the IC50 at CK1δ and at CK1ε was 0.01 to 10 nM in each case.
In the case of `CC(C)(C)c1cc(NC(=O)N2CCn3nc(-c4ccc(F)c(Cl)c4)c(C(N)=O)c3C2)ccc1C#N` [Compound A51, N^5-(3-(tert-Butyl)-4-cyanophenyl)-2-(3-chloro-4-fluorophenyl)-6,7-dihydropyrazolo[1,5-a]pyrazine-3,5(4H)-dicarboxamide], the IC50 at CK1δ and at CK1ε was 0.01 to 10 nM throughout.
On to `Cc1cc(NC(=O)N2CCn3nc(-c4cccc(F)c4)c(C(N)=O)c3C2)ccc1C#N` [Compound A55, N^5-(4-Cyano-3-methylphenyl)-2-(3-fluorophenyl)-6,7-dihydropyrazolo[1,5-a]pyrazine-3,5(4H)-dicarboxamide], for which the IC50 at CK1δ and at CK1ε was 0.01 to 10 nM in each case.
As to `CCOc1cc(Cl)cc(-c2nn3c(c2C(N)=O)CN(C(=O)Nc2ccc(C#N)c(Cl)c2)CC3)c1` [Compound A61, N^5-(3-Chloro-4-cyanophenyl)-2-(3-chloro-5-ethoxyphenyl)-6,7-dihydropyrazolo[1,5-a]pyrazine-3,5(4H)-dicarboxamide], the half-maximal inhibitory concentration (IC50) at CK1δ and at CK1ε was 0.01 to 10 nM throughout.
In the case of `Cc1cc(Cl)cc(-c2nn3c(c2C(N)=O)CN(C(=O)Nc2ccc(C#N)cc2)CC3)c1` [Compound A62, 2-(3-Chloro-5-methylphenyl)-N^5-(4-cyanophenyl)-6,7-dihydropyrazolo[1,5-a]pyrazine-3,5(4H)-dicarboxamide], the IC50 at CK1δ and at CK1ε was 0.01 to 10 nM each time.
In the case of `Cc1cc(Cl)cc(-c2nn3c(c2C(N)=O)CN(C(=O)Nc2ccc(C#N)c(Cl)c2)CC3)c1` [Compound A63, N^5-(3-Chloro-4-cyanophenyl)-2-(3-chloro-5-methylphenyl)-6,7-dihydropyrazolo[1,5-a]pyrazine-3,5(4H)-dicarboxamide], the IC50 at CK1δ and on CK1ε was 0.01 to 10 nM each time.
Take `CNC(=O)c1c(-c2ccc(F)c(Cl)c2)nn2c1CN(C(=O)Nc1ccc(C#N)cc1)CC2` [Compound A64, 2-(3-Chloro-4-fluorophenyl)-N^5-(4-cyanophenyl)-N3-methyl-6,7-dihydropyrazolo[1,5-a]pyrazine-3,5(4H)-dicarboxamide]: the IC50 at CK1δ and at CK1ε was 100 to 2000 nM throughout.
Consider `N#Cc1ccc(NC(=O)N2CCn3nc(-c4ccc(F)c(Cl)c4)c(C(=O)NC4CC4)c3C2)cc1` [Compound A65, 2-(3-Chloro-4-fluorophenyl)-N^5-(4-cyanophenyl)-N^3-cyclopropyl-6,7-dihydropyrazolo[1,5-a]pyrazine-3,5(4H)-dicarboxamide], for which the IC50 at CK1δ and on CK1ε was 100 to 2000 nM throughout.
As to `N#Cc1ccc(NC(=O)N2Cc3c(C(N)=O)c(-c4cccc(Cl)c4)nn3C3(CC3)C2)cc1` [Compound A86, 2′-(3-Chlorophenyl)-N^5′-(4-cyanophenyl)-4′H-spiro[cyclopropane-1,7′-pyrazolo[1,5-a]pyrazine]-3′,5′(6′H)-dicarboxamide], the concentration for half-maximal inhibition (IC50) at CK1δ and at CK1ε was 0.01 to 10 nM throughout.
For the compound `N#Cc1ccc(NC(=O)N2Cc3c(C(N)=O)c(-c4cccc(F)c4)nn3C3(CC3)C2)cc1` [Compound A87, N^5′-(4-Cyanophenyl)-2′-(3-fluorophenyl)-4′H-spiro[cyclopropane-1,7′-pyrazolo[1,5-a]pyrazine]-3′,5′(6′H)-dicarboxamide], the IC50 at CK1δ and at CK1ε was 0.01 to 10 nM each time.
